Results as given in patent publication US8598129B2, “Topical application of ivermectin for the treatment of dermatological conditions/afflictions” (Galderma S.A., priority 2003, dated 2013).

Test: solubility of ivermectin in various solvents
Type: physicochemical
Text: The table below illustrates the solubility of ivermectin in various solvents: […]

Ivermectin
Maximum % solubility of ivermectin in the solvent concerned (weight/weight) (solvent: N-methyl-2-pyrrolidone): 58.13 % (weight/weight)
Maximum % solubility of ivermectin in the solvent concerned (weight/weight) (solvent: Propylene glycol): 21.83 % (weight/weight)
Maximum % solubility of ivermectin in the solvent concerned (weight/weight) (solvent: Propylene glycol/oleyl alcohol (4 parts/2 parts)): 27.31 % (weight/weight)
Maximum % solubility of ivermectin in the solvent concerned (weight/weight) (solvent: Triacetin): 7.22 % (weight/weight)
